The record followed here is paper PMC5711809, “Bayesian Analysis of MicroScale Thermophoresis Data to Quantify Affinity of Protein:Protein Interactions with Human Survivin” (Scientific Reports, 2017).

Test [1] concerns the target T1, human survivin (Homo sapiens, UniProt O15392).
T1 construct: His8 (pHIS8 vector); made in house; host or cells: E. coli BL21(DE3) star
Description: MicroScale Thermophoresis (MST) with chemically labelled survivin. Format: binding. The conditions noted are these: Buffer B (50 mM Tris pH 7.4, 150 mM NaCl, 10 mM MgCl2, 0.05% Tween-20, 1 mM DTT), 24 °C, three independent dilution series, read-out: KD, Robust (Bayesian). As to the method: Survivin was expressed in E.coli BL21(DE3) star (Merck) cells using the pHIS8 expression vector used by Verdecia et al.[18] The expression was induced at OD600 0.6–0.8 in Luria Bertani (LB) media by 0.5 mM IPTG and incubated during 3–4 h at 30 °C. The cells were harvested at 6000 g during 20 min and resuspended in lysis buffer containing 50 mM Tris pH 8, 500 mM NaCl, 10 mM imidazole, 0.25 mM Pefabloc®SC (Sigma), […] DNAse (Sigma) and 0.2 mg/ml Lysozyme (Sigma). The cells were lysed with a high pressure homogenizer, using 3 cycles of […]. Survivin was purified by Ni^2+ chelation chromatography using 5 ml HisTrap FF column (GE Healthcare). Overnight dialysis in 50 mM Tris pH8, 150 mM NaCl and 1 mM DTT buffer and a gel filtration purification using a Superdex 75 100/300GL column (GE Healthcare) were done before chemical labelling. […] The borealin^6–20, hSgol1^291–312 and hSgol2^1066–1085 peptides were chemically synthetized (Genscript).
MicroScale Thermophoresis experiments were performed according to the NanoTemper technologies protocol in a Monolith NT.115 (green/blue) instrument (NanoTemper Technologies). […]
Survivin was labelled with the MO-L005 Monolith™ Protein Labeling Kit GREEN-MALEIMIDE (Cysteine Reactive) from NanoTemper Technologies. Peptides derived from hSgol1^291–312 ([…]) and hSgol2^1066–1085 ([…]) were analyzed in Buffer B (50 mM Tris pH 7.4, 150 mM NaCl, 10 mM MgCl2, 0.05% Tween-20 and 1 mM DTT). All samples were measured after an incubation of 5 min (according to “User Starting Guide Monolith® NT.115”).
The experiments were performed using 20% and 40% MST power and between 20–80% LED power at 24 °C. The MST traces were recorded using the standard parameters: 5 s MST power off, 30 s MST power on and 5 s MST power off. The reported measurement values are the combination of two effects: the fast, local environment dependent responses of the fluorophore to the temperature jump and the slower diffusive thermophoresis fluorescence changes. […]
A general note: In MST a laser heats a spot of the sample, and binding alters the fluorescence response.

The target in test [2] is T1, human survivin. Description: PEPperCHIP peptide microarray, survivin binding to laser printed overlapping peptides. The conditions noted are these: survivin 1, 10 and 100 μg/ml; secondary 6X His Tag Antibody DyLight680 antibody; fluorescence, LI-COR Odyssey; duplicate spots. As to the method: We tested the Bayesian inference method on potential binding interactions of survivin identified by PEPperCHIP Peptide Microarray (PEPperPRINT, GmbH, Heidelberg, Germany). These microarrays consisted of overlapping peptides originating from candidate proteins from the human proteome including hSgol1, hSgol2 and the N-terminal region of borealin (1–93). The peptides were generated by peptide laser printing[25] (Fig. 2). […] The spots are consistently visible at 1, 10 and 100 μg/ml survivin concentrations in the assay buffer (Fig. 2). Quantitative analysis of the fluorescent intensities of the specific and control antibodies for borealin, hSgo1l and hSgol2 are shown in Supplementary Fig. S1, S2 and S3, respectively.
Pre-staining of one of the PEPperCHIP® Peptide Microarrays was done with the secondary 6X His Tag Antibody DyLight680 antibody at a dilution of 1:1000 and with monoclonal anti-HA (12CA5)-DyLight800 control antibody at a dilution of 1:1000 to investigate background interactions with the protein-derived peptides that could interfere with the main assays. Subsequent incubation of other peptide microarray copies with survivin at concentrations of 1 µg/ml, 10 µg/ml and 100 µg/ml in incubation buffer was followed by staining with the secondary 6X His Tag Antibody DyLight680 (Rockland Immunochemicals) antibody and the monoclonal anti-HA (12CA5)-DyLight800 control antibody (Rockland Immunochemicals) as well as by read-out at scanning intensities of 7/7 (red/green). HA and His tag control peptides were simultaneously stained as internal quality control to confirm the assay quality and to facilitate grid alignment for data quantification. Read-out was performed with a LI-COR Odyssey Imaging System, while quantification of spot intensities and peptide annotation were done with PepSlide® Analyzer.

In test [3] the target is T2, human survivin (human, UniProt O15392 1-142, GREEN-MALEIMIDE (cysteine reactive) fluorescent label, in the MST experiments only).
T2 construct: survivin, human, 16 kDa; The His tag is detected on the array by a 6X His Tag antibody; for the MST no cleavage of the tag is told; On the array the protein was unlabelled, in the MST labelled on cysteine; source: E. coli BL21(DE3) star, purified (Ni2+ chelation chromatography, gel filtration)
T2 sequence (O15392 whole entry): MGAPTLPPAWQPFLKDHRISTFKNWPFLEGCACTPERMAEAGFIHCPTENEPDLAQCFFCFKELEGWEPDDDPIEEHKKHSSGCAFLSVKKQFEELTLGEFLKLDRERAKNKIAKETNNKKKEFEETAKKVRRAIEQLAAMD
Description: peptide or protein array; PEPperCHIP microarray of overlapping printed peptides; incubated with survivin at 1, 10 and 100 µg/ml in incubation buffer; detected with 6X His Tag Antibody DyLight680. The conditions noted are these: both partners purified.

For test [4], the target named is T2, human survivin. Description: MST; labelled survivin held constant, serial dilution of the peptide; Buffer A (50 mM Tris pH 8.0, 150 mM NaCl, 1 mM DTT, 0.05% Tween); 5 min incubation; 24 °C; T-jump + thermophoresis; three dilution series. The conditions noted are these: both partners purified.
In test [5] the target is T2, human survivin. Description: MST; labelled survivin held constant, serial dilution of the peptide; Buffer B (50 mM Tris pH 7.4, 150 mM NaCl, 10 mM MgCl2, 0.05% Tween-20, 1 mM DTT); 5 min incubation; 24 °C; T-jump + thermophoresis; three dilution series. The conditions noted are these: both partners purified.
Test [6] has as its target T2, human survivin. Described as above. The conditions noted are these: both partners purified. The source holds these as a separate data set.
Where [7] appears, read: 5 min incubation, median and HDI 95% interval of sampled posterior.

Where “and” joins values, the source holds several entries; their conditions need not be identical. Equal values may be shown once. Read-outs that look alike come from different tables or passages of the source. Peptide text beside a SMILES is read from it.

T1 sequence (O15392 whole entry): as above

Take `CSCC[C@H](NC(=O)[C@H](CCCNC(=N)N)NC(=O)[C@H](CCCCN)NC(=O)[C@H](CO)NC(=O)[C@H](CCCCN)NC(=O)[C@H](CCCNC(=N)N)NC(=O)[C@H](CCCNC(=N)N)NC(=O)[C@H](CC(N)=O)NC(=O)[C@H](C)NC(=O)[C@H](CCCCN)NC(=O)[C@H](CCCNC(=N)N)NC(=O)[C@H](CCCCN)NC(=O)[C@H](CCC(=O)O)NC(=O)[C@H](CCC(=O)O)NC(=O)[C@H](CCCNC(=N)N)NC(=O)[C@@H](N)CCCCN)C(=O)N[C@@H](CO)C(=O)N[C@@H](CCCCN)C(=O)N[C@@H](Cc1ccc(O)cc1)C(=O)N[C@@H](CCCCN)C(=O)N[C@@H](CCC(=O)O)C(=O)N[C@@H](CC(N)=O)C(=O)O` [hSgol1^291–312] (H-KREEKRKANRRKSKRMSKYKEN-OH): the Kd (usually a measure of binding affinity in units of concentration) at human survivin [1] (setting [7]) came out at 80.7 µM; on human survivin [1] (120 min incubation, median and HDI 95% interval, incubation time affected adversely the sample quality), 53.6 µM.
As for `CSCC[C@H](NC(=O)[C@H](CCCCN)NC(=O)[C@H](CC(N)=O)NC(=O)[C@@H](NC(=O)[C@H](CCCCN)NC(=O)[C@H](CCCCN)NC(=O)[C@@H](NC(=O)[C@H](CCC(N)=O)NC(=O)[C@H](CS)NC(=O)[C@@H](N)CCC(=O)O)C(C)C)C(C)C)C(=O)N[C@H](C(=O)N[C@@H](CO)C(=O)N[C@@H](CCCCN)C(=O)N[C@@H](CO)C(=O)N[C@@H](CCCCN)C(=O)N[C@@H](CCCCN)C(=O)N[C@@H](CCCNC(=N)N)C(=O)N[C@@H](CCCCN)C(=O)N[C@H](C(=O)N[C@@H](CO)C(=O)O)[C@@H](C)O)[C@@H](C)O` [hSgol2^1066–1085] (H-ECQVKKVNKMTSKSKKRKTS-OH), the Kd on human survivin [1] (setting [7]) was 1.6 µM.
Consider “DTQERKREEKRKANR [adjacent hSgol1 peptide, laser printed on microarray]”, for which the “microarray response to survivin (spot signal)” value (“microarray response to survivin” below) at human survivin [2] was “to some extent”.
Consider “ECQVKKVNKMTSKSK [hSgol2 peptide, laser printed on microarray]”, for which the “microarray response to survivin” value on human survivin [2] is listed as “main responses with the clearest spot morphologies”.
As for “EVSKIVTVSTGIKKK [other basic peptide on the microarray]”, the “microarray response to survivin” value on human survivin [2] is “did not react with survivin in a similar manner”.
The same measure, in the same setting: the entry for “HQSSFLLSASKKKRI [other basic peptide on the microarray]” is “did not react with survivin in a similar manner”; for “KREEKRKANRRKSKR [basic hSgol1 peptide, laser printed on microarray]” it is “main responses with the clearest spot morphologies”.
On to “KTFRKVKDSSSEKKR [other basic peptide on the microarray]”, for which, on human survivin [2], the “microarray response to survivin” value is recorded as “did not react with survivin in a similar manner”.
“KVNKMTSKSKKRKTS [hSgol2 peptide, laser printed on microarray]”: the “microarray response to survivin” value on human survivin [2] is on record as “main responses with the clearest spot morphologies”.
The same measure, in the same setting: next, “RKANRRKSKRMSKYK [basic hSgol1 peptide, laser printed on microarray]”: “main responses with the clearest spot morphologies”.
“SPTDPKACNWKKYKF [other basic peptide on the microarray]”: at human survivin [2], the “microarray response to survivin” value is “did not react with survivin in a similar manner”.

B1: hSgol1 array peptide RKANRRKSKRMSKYK (peptide)
peptide: RKANRRKSKRMSKYK
notes: human Shugoshin-like 1 (hSgol1), 15-mer of the overlapping peptide array; source: laser-printed on the PEPperCHIP peptide microarray (PEPperPRINT)
On to B1, for which, in the test with human survivin [3], the binding result is recorded as “binds”.

B2: borealin^6–20 peptide (peptide)
peptide: GSSRVAKTNSLRRRK
notes: borealin, human, residues 6-20; source: synthetic peptide (Genscript) for MST; laser-printed on the PEPperCHIP peptide microarray (PEPperPRINT)
In the case of B2, the Kd in the test with human survivin [4] was 10.8 µM and 10.2 µM and 10 µM.

B3: hSgol2^1066–1085 peptide (peptide)
peptide: ECQVKKVNKMTSKSKKRKTS
notes: human Shugoshin-like 2 (hSgol2), residues 1066-1085; also called hSgol2 peptide; source: synthetic peptide (Genscript)
As to B3, the Kd in the test with human survivin [5] was 1.6 µM and 1.4 µM.

B4: hSgol2 array peptide ECQVKKVNKMTSKSK (peptide)
peptide: ECQVKKVNKMTSKSK
notes: human Shugoshin-like 2 (hSgol2), 15-mer of the overlapping peptide array; source: laser-printed on the PEPperCHIP peptide microarray (PEPperPRINT)
For B4, in the test with human survivin [3], the binding result is listed as “binds”.

B5: hSgol2 array peptide KVNKMTSKSKKRKTS (peptide)
peptide: KVNKMTSKSKKRKTS
notes: as for B4
Consider B5, for which the binding result with human survivin [3] is reported as “binds”.

B6: hSgol1^291–312 peptide (peptide)
peptide: KREEKRKANRRKSKRMSKYKEN
notes: human Shugoshin-like 1 (hSgol1), residues 291-312, with the KEN motif; also called hSgol1 peptide; source: synthetic peptide (Genscript)
Turning to B6, the Kd with human survivin [6] worked out at 80.9 µM.

B7: hSgol1 array peptide KREEKRKANRRKSKR (peptide)
peptide: KREEKRKANRRKSKR
notes: as for B1
Consider B7, for which, in the test with human survivin [3], the binding result was “binds”.
